Experimental data published in patent US8153791B2, “Substituted pyrimidinyl oxime kinase inhibitors” (Janssen Pharmaceutica N.V., priority 2005, dated 2012).
Read-outs that look alike come from different tables or passages of the source.

What was measured:
[1] = test system: HeLa cervical adenocarcinoma; assay: In vitro cell proliferation inhibition, HeLa; type: cell-based; conditions: Homo sapiens, read-out: HeLa IC50
Description: (§1) The ability of a test compound to inhibit unregulated in vitro cell proliferation may be determined by measuring incorporation of ^14C-labelled thymidine into newly synthesized DNA within cell lines derived from carcinomas originating from several tissues. Accordingly, the effect of a test compound on proliferation of cells with a variety of phenotypes may be determined.
(§2) Carcinoma cell lines used include the HeLa cervical adenocarcinoma from the American Type Culture Collection (ATCC Cat. #CCL2), SK-OV-3 ovarian carcinoma (ATCC Cat. #HTB-77), MCF-7 breast carcinoma (ATCC Cat. #HTB-22), BT474 breast carcinoma (ATCC Cat. #HTB-20), SKBR3 breast carcinoma (ATCC Cat. #HTB-30), A431 epidermoid carcinoma (ATCC Cat. #CRL-1555) and NCI-N87 gastric carcinoma (ATCC Cat. #CRL-5822).
(§3) The carcinoma cells are trypsinized and counted. The cells (3000-8000 count) are added to each well of a 96-well CytoStar tissue culture treated scintillating microplate (Amersham #RPNQ0160) in complete medium (100 μL) and the plate is then incubated in complete medium for 24 hrs at 37° C. in an inert atmosphere containing 5% CO2.
(§4) Test compound (1 μL) in 100% DMSO is added to the plate test-wells with DMSO only added to control-wells. The plate is incubated in complete medium for a second 24 hr period at 37° C. in an atmosphere containing 5% CO2.
(§5) An aliquot of a solution of Methyl ^14C-thymidine (56 mC/mmol) (NEN #NEC568 or Amersham #CFA532) and complete medium (20 μL to provide 0.2 μCi/well) is then added to each well and the plate is incubated for a third 24 hr period at 37° C. in an atmosphere containing 5% CO2.
(§6) The plate contents are then discarded, the plate is washed twice with PBS (200 μL) and then PBS (200 μL) is added to each well. The plate is sealed and the degree of methyl ^14C-thymidine incorporation is quantified on a Packard Top Count.
(§7) Cell proliferation of the Hela cell line was measured using the ATP-Lite method as described in the ATP Lite Kit (Perkin-Elmer Kit Number 6106941) or the C^14 method as described above. Cell proliferation of the other cell lines was measured using the C^14 method.
(§8) The term “NT” means that the compound indicated was not tested in a particular cell line. The lack of such testing is not intended to imply a belief that the compound is not otherwise active in a particular cell line or any other cell line not tested.

[2] = molecular target: T1, EGFR (Homo sapiens, UniProt P00533); assay: EGFR Kinase Assay; type: biochemical;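 note: recombinant GST-tagged EGFR expressed in Sf9 cells, phosphorylating biotinylated polyGluTyr with γ-33P ATP on Streptavidin Flashplates, 1 h at 30 °C, scintillation counting, inhibition relative to plate maximum and minimum signals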
T1 construct: The intracellular portion of EGFR started at nucleotide 2189 (corresponding to amino acid 667) and ended at the termination codon; made in house; host or cells: Sf9 insect cells (baculovirus)
T1 sequence (P00533 669-1210 limits assumed): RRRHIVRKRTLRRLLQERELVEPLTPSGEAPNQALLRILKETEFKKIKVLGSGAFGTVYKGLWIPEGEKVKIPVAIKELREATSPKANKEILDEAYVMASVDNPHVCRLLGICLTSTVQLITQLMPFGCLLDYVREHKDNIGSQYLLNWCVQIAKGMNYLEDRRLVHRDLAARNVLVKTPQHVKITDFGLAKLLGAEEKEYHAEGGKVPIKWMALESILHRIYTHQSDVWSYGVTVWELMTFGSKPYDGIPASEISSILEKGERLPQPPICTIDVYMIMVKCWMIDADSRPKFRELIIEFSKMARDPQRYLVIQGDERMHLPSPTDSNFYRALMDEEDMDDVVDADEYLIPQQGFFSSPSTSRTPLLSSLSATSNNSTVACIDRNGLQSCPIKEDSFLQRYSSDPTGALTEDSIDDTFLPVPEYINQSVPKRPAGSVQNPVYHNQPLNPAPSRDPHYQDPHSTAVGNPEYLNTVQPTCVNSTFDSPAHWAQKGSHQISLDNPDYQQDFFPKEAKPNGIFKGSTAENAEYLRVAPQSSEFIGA

[3] = molecular target: T2, HER-2 (Homo sapiens, UniProt P04626); assay: HER-2 Kinase Assay; type: biochemical; conditions: read-out: HER2 IC50;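 note: HER2 kinase reaction read by scintillation counting, inhibition scaled between maximum and minimum signals set on each plate, IC50 from inhibition against log concentration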
T2 construct: purchased Proqinase (Freiburg, Germany)
T2 sequence (P04626 679-1255): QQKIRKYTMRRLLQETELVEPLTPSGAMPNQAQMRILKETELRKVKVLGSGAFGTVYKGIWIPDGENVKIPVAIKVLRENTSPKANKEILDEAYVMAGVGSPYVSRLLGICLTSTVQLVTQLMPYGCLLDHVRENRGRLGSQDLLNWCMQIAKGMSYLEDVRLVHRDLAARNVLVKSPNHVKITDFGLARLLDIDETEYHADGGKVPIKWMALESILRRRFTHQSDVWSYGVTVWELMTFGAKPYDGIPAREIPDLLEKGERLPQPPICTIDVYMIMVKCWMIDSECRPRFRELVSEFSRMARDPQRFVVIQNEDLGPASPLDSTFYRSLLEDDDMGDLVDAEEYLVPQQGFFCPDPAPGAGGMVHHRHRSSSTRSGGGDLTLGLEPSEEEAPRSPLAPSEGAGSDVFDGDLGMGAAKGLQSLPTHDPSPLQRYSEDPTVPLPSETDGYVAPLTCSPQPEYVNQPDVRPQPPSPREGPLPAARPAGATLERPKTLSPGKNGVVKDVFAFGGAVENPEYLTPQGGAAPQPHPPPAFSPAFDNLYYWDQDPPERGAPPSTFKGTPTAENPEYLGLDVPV

[4] = test system: A431 epidermoid carcinoma; assay: In vitro cell proliferation inhibition, A431; type: cell-based; conditions: Homo sapiens
Description: as §1, §2, §3, §4, §5, §6, §7, §8

[5] = test system: SKBR3 breast carcinoma; assay: In vitro cell proliferation inhibition, SKBR3; type: cell-based; conditions: Homo sapiens
Description: as §1, §2, §3, §4, §5, §6, §7, §8

[6] = test system: NCI-N87 gastric carcinoma; assay: In vitro cell proliferation inhibition, NCI-N87; type: cell-based; conditions: Homo sapiens
Description: as §1, §2, §3, §4, §5, §6, §7, §8

[7] = test system: BT474 breast carcinoma; assay: In vitro cell proliferation inhibition, BT474; type: cell-based; conditions: Homo sapiens
Description: as §1, §2, §3, §4, §5, §6, §7, §8

[8] = test system: MCF-7 breast carcinoma; assay: In vitro cell proliferation inhibition, MCF-7; type: cell-based; conditions: Homo sapiens, MCF7; MCF-7 cells, 14C-thymidine incorporation
Description: as §1, §2, §3, §4, §5, §6, §7, §8

[9] = test system: SK-OV-3 ovarian carcinoma; assay: In vitro cell proliferation inhibition, SK-OV-3; type: cell-based; conditions: Homo sapiens; SK-OV-3 cells, 14C-thymidine incorporation
Description: as §1, §2, §3, §4, §5, §6, §7, §8

[10] = HeLa cell line, ATP-Lite method or C14 thymidine method
[11] = A-431, A431 cells, 14C-thymidine incorporation, read-out: IC50 A431
[12] = SK-BR-3, SKBR3 cells, 14C-thymidine incorporation, read-out: IC50 SKBR3
[13] = NCI-N87, N87 cells, 14C-thymidine incorporation, read-out: IC50 N87
[14] = BT-474, BT474 cells, 14C-thymidine incorporation, read-out: IC50 BT474

Row | Compound | IC50 [1, 10] [µM] | IC50 [2] [nM] | IC50 [3] [nM] | also measured
1 | CO/N=C/c1c(N)ncnc1Nc1ccc(Cl)cc1F [Cpd 80] | 100 | 300 | – | –
2 | N#Cc1c(N)ncnc1Nc1ccc(OCc2ccccc2)c(Cl)c1 [Cpd 118, 4-amino-6-(4-benzyloxy-3-chloro-phenylamino)-pyrimidine-5-carbonitrile] | 100 | 30 | 100 | IC50 [4, 11]: 100 µM; IC50 [5, 12]: 100000 nM; IC50 [6, 13]: 100000 nM; IC50 [7, 14]: 100000 nM
3 | CO/N=C\c1c(N)ncnc1Nc1ccc(Br)cc1F [Cpd 83] | 3.6 | – | – | –
4 | CO/N=C/c1c(N)ncnc1Nc1ccc(OCc2cc(F)cc(F)c2)c(Cl)c1 [Cpd 97, (5E)-4-amino-6-[3-chloro-4-(3,5-difluoro-benzyloxy)-phenylamino]-pyrimidine-5-carbaldehyde O-methyl-oxime] | 100 | – | 1000 | –
5 | CO/N=C/c1c(N)ncnc1Nc1ccc2[nH]c(Cc3cccc(F)c3)nc2c1 [Cpd 60, (5E)-4-amino-6-[2-(3-fluoro-benzyl)-1H-benzoimidazol-5-ylamino]-pyrimidine-5-carbaldehyde O-methyl-oxime] | 10 | – | – | IC50 [8]: 10 µM; IC50 [9]: 10 µM; IC50 [6, 13]: 600 nM
6 | CO/N=C\c1c(N)ncnc1Nc1ccc(Cl)cc1F [Cpd 81] | 10 | – | – | –
7 | CO/N=C\c1c(N)ncnc1Nc1cc(O)c(Cl)cc1F [Cpd 90] | 10 | – | – | –
8 | C[C@H](Nc1ncnc(N)c1/C=N/O)c1ccccc1 [Cpd 100, (5E)-4-amino-6-[(1S)-1-phenyl-ethylamino]-pyrimidine-5-carbaldehyde oxime] | 10 | 20 | – | –
9 | Nc1ncnc(Nc2ccc3c(cnn3Cc3cccc(F)c3)c2)c1/C=N/O [Cpd 84, (5E)-4-amino-6-[1-(3-fluoro-benzyl)-1H-indazol-5-ylamino]-pyrimidine-5-carbaldehyde oxime] | 4.9 | – | – | –
10 | CO/N=C/c1c(N)ncnc1Nc1ccc(Br)cc1F [Cpd 82] | 100 | 200 | – | –
11 | CO/N=C/c1c(N)ncnc1Nc1cc(O)c(Cl)cc1F [Cpd 89] | 10 | – | – | –
12 | CN(C)CCCO/N=C/c1c(N)ncnc1Nc1ccc2c(cnn2Cc2cccc(F)c2)c1 [Cpd 70, (5E)-4-amino-6-[1-(3-fluoro-benzyl)-1H-indazol-5-ylamino]-pyrimidine-5-carbaldehyde O-(3-dimethylamino-propyl)-oxime] | – | 20 | 20 | IC50 ([1]; HeLa): 10 µM; IC50 ([4]; A-431, read-out: IC50 A431): 14.2 µM; IC50 ([5]; SK-BR-3, read-out: IC50 SKBR3): 400 nM; IC50 ([6]; NCI-N87, read-out: IC50 N87): 300 nM; IC50 ([7]; BT-474, read-out: IC50 BT474): 100 nM
13 | Nc1ncnc(Nc2ccc(OCc3cc(F)cc(F)c3)c(Cl)c2)c1/C=N/O [Cpd 98, (5E)-4-amino-6-[3-chloro-4-(3,5-difluoro-benzyloxy)-phenylamino]-pyrimidine-5-carbaldehyde oxime] | 100 | 20 | 100 | –
14 | CO/N=C/c1c(NOC)ncnc1Nc1ccc(Br)cc1F [Cpd 86] | 100 | – | – | –
15 | Nc1ncnc(Nc2ccc3c(cnn3Cc3cccc(F)c3)c2)c1/C=N/OCCCO [Cpd 85, (5E)-4-amino-6-[1-(3-fluoro-benzyl)-1H-indazol-5-ylamino]-pyrimidine-5-carbaldehyde O-(3-hydroxy-propyl)-oxime] | – | 20 | 20 | IC50 ([1]; HeLa): 15.6 µM

Second part, led by results:

Row | IC50 [1, 10] [µM] | IC50 [2] [nM] | IC50 [3] [nM] | Compound | also measured
16 | 10 | 20 | 100 | Nc1ncnc(Nc2ccc(OCc3ccccc3)c(Cl)c2)c1/C=N/O [Cpd 77, (5E)-4-amino-6-(4-benzyloxy-3-chloro-phenylamino)-pyrimidine-5-carbaldehyde oxime] | –
17 | 100 | – | – | Nc1ncnc(Nc2ccc(NC(=O)c3ccccc3)cc2)c1/C=N/OCCN1CCOCC1 [Cpd 107] | –
18 | 100 | 8 | 10 | Nc1ncnc(Nc2ccc(OCc3cccc(F)c3)c(Cl)c2)c1/C=N/O [Cpd 79, (5E)-4-amino-6-[3-chloro-4-(3-fluoro-benzyloxy)-phenylamino]-pyrimidine-5-carbaldehyde oxime] | –
19 | 100 | – | – | Nc1ncnc(Nc2ccc(Oc3ccccc3)cc2)c1/C=N/OCCN1CCOCC1 [Cpd 109] | –
20 | 100 | 70 | 200 | Nc1ncnc(Nc2ccc(OCc3cc(F)cc(F)c3)c(Cl)c2)c1/C=N/OCCN1CCOCC1 [Cpd 99, (5E)-4-amino-6-[3-chloro-4-(3,5-difluoro-benzyloxy)-phenylamino]-pyrimidine-5-carbaldehyde O-(2-morpholin-4-yl-ethyl)-oxime] | IC50 [4, 11]: 100 µM; IC50 [5, 12]: 100000 nM; IC50 [6, 13]: 100000 nM; IC50 [7, 14]: 10000 nM
21 | 4.9 | 30 | 70 | Nc1ncnc(Nc2ccc3c(cnn3Cc3cccc(F)c3)c2)c1/C=N/OCCCN1CCOCC1 [Cpd 87, (5E)-4-amino-6-[1-(3-fluoro-benzyl)-1H-indazol-5-ylamino]-pyrimidine-5-carbaldehyde O-(3-morpholin-4-yl-propyl)-oxime] | IC50 [4, 11]: 3.6 µM; IC50 [5, 12]: 500 nM; IC50 [6, 13]: 300 nM; IC50 [7, 14]: 300 nM
22 | 1.4 | 40 | 140 | Nc1ncnc(Nc2ccc3c(ccn3Cc3cccc(F)c3)c2)c1/C=N/OCCN1CCCCC1 [Cpd 102, (5E)-4-amino-6-[1-(3-fluoro-benzyl)-1H-indol-5-ylamino]-pyrimidine-5-carbaldehyde O-(2-piperidin-1-yl-ethyl)-oxime] | IC50 [4, 11]: 0.001 µM; IC50 [5, 12]: 700 nM; IC50 [6, 13]: 200 nM; IC50 [7, 14]: 900 nM
23 | 10.9 | 9 | 20 | Nc1ncnc(Nc2ccc3c(ccn3Cc3cccc(F)c3)c2)c1/C=N/O [Cpd 88, (5E)-4-amino-6-[1-(3-fluoro-benzyl)-1H-indol-5-ylamino]-pyrimidine-5-carbaldehyde oxime] | –
24 | 100 | – | – | Nc1ncnc(Nc2ccc3c(cnn3Cc3cccc(F)c3)c2)c1/C=N/OCc1ccccc1 [Cpd 46, (5E)-4-amino-6-[1-(3-fluoro-benzyl)-1H-indazol-5-ylamino]-pyrimidine-5-carbaldehyde O-benzyl-oxime] | IC50 [4, 11]: 100 µM; IC50 [5, 12]: 300 nM; IC50 [6, 13]: 10000 nM; IC50 [7, 14]: 100 nM
25 | 10 | – | – | CO/N=C/c1c(N)ncnc1Nc1ccc(NC(=O)c2ccccc2)cc1 [Cpd 104] | –
26 | 4.7 | 50 | 30 | Nc1ncnc(Nc2ccc3c(cnn3Cc3cccc(F)c3)c2)c1/C=N/OCCCN1CCCCC1 [Cpd 92, (5E)-4-amino-6-[1-(3-fluoro-benzyl)-1H-indazol-5-ylamino]-pyrimidine-5-carbaldehyde O-(3-piperidin-1-yl-propyl)-oxime] | IC50 [4, 11]: 3.1 µM; IC50 [5, 12]: 400 nM; IC50 [6, 13]: 200 nM; IC50 [7, 14]: 200 nM
27 | 10 | 200 | 1100 | Nc1ncnc(Nc2ccc(F)c(Cl)c2)c1/C=N/OCCN1CCOCC1 [Cpd 108] | –
28 | 100 | – | – | Nc1ncnc(Nc2ccc(NC(=O)c3ccccc3)cc2)c1/C=N/O [Cpd 105] | –
29 | 33.1 | – | – | CO/N=C/c1c(N)ncnc1Nc1cnc(NC(=O)c2ccccc2)nc1 [Cpd 110] | –
30 | 10 | – | – | C[C@H](Nc1ncnc(N)c1/C=N/OCCN1CCOCC1)c1ccccc1 [Cpd 103] | –
31 | 10 | – | – | C[C@H](Nc1ncnc(N)c1/C=N/OCCN1CCCCC1)c1ccccc1 [Cpd 106] | –
